One compound from article PMC2680243 (Cancer research, 2008) can be followed below.

For the experiment, the target named is T1, Cdc25A (Homo sapiens, UniProt P30304).
T1 sequence (P30304 1-524): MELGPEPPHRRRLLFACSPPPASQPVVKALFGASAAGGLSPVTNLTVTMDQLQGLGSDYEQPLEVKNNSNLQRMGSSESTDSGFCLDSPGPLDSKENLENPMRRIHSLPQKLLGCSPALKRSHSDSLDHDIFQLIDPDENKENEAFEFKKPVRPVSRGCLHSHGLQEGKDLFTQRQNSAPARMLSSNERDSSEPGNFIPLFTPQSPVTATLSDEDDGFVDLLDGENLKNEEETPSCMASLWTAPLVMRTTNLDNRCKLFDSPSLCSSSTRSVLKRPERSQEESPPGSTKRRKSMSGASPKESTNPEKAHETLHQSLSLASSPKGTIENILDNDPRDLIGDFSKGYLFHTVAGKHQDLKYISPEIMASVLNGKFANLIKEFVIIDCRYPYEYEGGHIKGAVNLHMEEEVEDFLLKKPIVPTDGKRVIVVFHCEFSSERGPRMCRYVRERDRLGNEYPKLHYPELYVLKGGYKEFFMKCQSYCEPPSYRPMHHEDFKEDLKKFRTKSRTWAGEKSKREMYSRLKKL
In words: OMFP phosphatase assay, […] min pretreatment. It counts as biochemical.

Molecules are shown by their SMILES.

As usually defined, the IC50 is the midpoint of a concentration-inhibition curve.

Consider `CCOC(=O)[C@@H](N)CSN=O` [SNCEE, S-nitrosocysteine ethyl ester], for which the IC50 amounted to 22.5 ± 6.2 µM.
